pIC50: −log10 of the molar value.
biological target: IRAK4 (Homo sapiens (Human), UniProt Q9NWZ3); assay: IRAK4 Inhibition Assay; type: biochemical; conditions: ATP 500 μM; IRAK4 0.6 nM
Procedure: The assays were performed in U-bottom 384-well plates. The final assay volume was 30 μL prepared from 15 μL additions of enzyme and substrates (fluoresceinated peptide and ATP) and test compounds in assay buffer (20 mM HEPES pH 7.2, 10 mM MgCl2, 0.015% Brij 35 and 4 mM DTT). The reaction was initiated by the combination of IRAK4 with substrates and test compounds. The reaction mixture was incubated at room temperature for 60 min. and terminated by adding 45 μL of 35 mM EDTA to each sample. The reaction mixture was analyzed on the Caliper LABCHIP® 3000 (Caliper, Hopkinton, Mass.) by electrophoretic separation of the fluorescent substrate and phosphorylated product. Inhibition data were calculated by comparison to no enzyme control reactions for 100% inhibition and vehicle-only reactions for 0% inhibition. The final concentrations of reagents in the assays are ATP, 500 μM; FL-IPTSPITTTYFFFKKK peptide 1.5 μM; IRAK4, 0.6 nM; and DMSO, 1.6%.

Sequence of IRAK4 (Q9NWZ3 whole entry, species assumed): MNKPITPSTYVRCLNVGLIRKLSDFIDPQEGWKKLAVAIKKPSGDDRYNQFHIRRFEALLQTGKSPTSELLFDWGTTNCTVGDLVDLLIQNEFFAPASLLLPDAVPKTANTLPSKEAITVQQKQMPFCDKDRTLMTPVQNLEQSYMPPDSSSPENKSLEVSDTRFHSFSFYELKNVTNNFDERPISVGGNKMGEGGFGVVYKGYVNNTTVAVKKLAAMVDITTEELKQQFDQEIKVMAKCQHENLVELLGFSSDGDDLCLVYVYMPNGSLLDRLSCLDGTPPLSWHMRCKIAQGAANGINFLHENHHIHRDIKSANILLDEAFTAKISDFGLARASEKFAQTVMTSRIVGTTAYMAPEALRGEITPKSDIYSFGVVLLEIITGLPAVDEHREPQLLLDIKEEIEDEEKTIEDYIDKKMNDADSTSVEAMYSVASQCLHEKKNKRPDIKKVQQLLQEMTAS

pIC50 | Structure (SMILES)
7.21 | CC(C)Nc1cc(-n2ncc3cc(C#N)cnc32)ncc1-n1cc(C(C)C)cn1 [Example 244, 1-(5-(4-isopropyl-1H-pyrazol-1-yl)-4-(isopropylamino)pyridin-2-yl)-1H-pyrazolo[3,4-b]pyridine-5-carbonitrile]
6.48 | CC(C)Nc1cc(-n2ncc3cc(C#N)cnc32)ncc1-n1cc(-c2ccccn2)cn1 [Example 245, 1-(4-(isopropylamino)-5-(4-(pyridin-2-yl)-1H-pyrazol-1-yl)pyridin-2-yl)-1H-pyrazolo[3,4-b]pyridine-5-carbonitrile]
6.47 | Cc1ccn(-c2cnc(-n3ncc4cc(C#N)cnc43)cc2NC(C)C)n1 [Example 246, 1-(4-(isopropylamino)-5-(3-methyl-1H-pyrazol-1-yl)pyridin-2-yl)-1H-pyrazolo[3,4-b] pyridine-5-carbonitrile]
6.69 | CC(C)Nc1cc(-n2ncc3cc(C#N)cnc32)ncc1-n1ccc(C(F)(F)F)n1 [Example 247, 1-(4-(isopropylamino)-5-(3-(trifluoromethyl)-1H-pyrazol-1-yl)pyridin-2-yl)-1H-pyrazolo[3,4-b]pyridine-5-carbonitrile]
7.18 | CC(C)Nc1cc(-n2ncc3cc(C#N)cnc32)ncc1-n1ccc(C#N)n1 [Example 248, 1-(5-(3-cyano-1H-pyrazol-1-yl)-4-(isopropylamino)pyridin-2-yl)-1H-pyrazolo[3,4-b]pyridine-5-carbonitrile]
7.33 | CC(C)Nc1cc(-n2ncc3cc(C#N)cnc32)ncc1-n1ccc(-c2cccnc2)n1 [Example 249, 1-(4-(isopropylamino)-5-(3-(pyridin-3-yl)-1H-pyrazol-1-yl)pyridin-2-yl)-1H-pyrazolo[3,4-b]pyridine-5-carbonitrile]
6.71 | CC(C)Nc1cc(-n2ncc3cc(C#N)cnc32)ncc1-n1ccc(CC#N)n1 [Example 250, 1-(5-(3-(cyanomethyl)-1H-pyrazol-1-yl)-4-(isopropylamino)pyridin-2-yl)-1H-pyrazolo[3,4-b]pyridine-5-carbonitrile]
7.41 | CC(C)Nc1cc(-n2ncc3cc(C#N)cnc32)ncc1-n1cc(CCCN)cn1 [Example 251, 1-(5-(4-(3-aminopropyl)-1H-pyrazol-1-yl)-4-(isopropylamino)pyridin-2-yl)-1H-pyrazolo[3,4-b]pyridine-5-carbonitrile]
6.92 | CC(C)Nc1cc(-n2ncc3cc(C#N)cnc32)ncc1-c1cnn(CCO)c1 [Example 252, 1-(5-(1-(2-hydroxyethyl)-1H-pyrazol-4-yl)-4-(isopropylamino)pyridin-2-yl)-1H-pyrazolo[3,4-b]pyridine-5-carbonitrile]
7.19 | CCn1cc(-c2cnc(-n3ncc4cc(C#N)cnc43)cc2NC(C)C)cn1 [Example 253, 1-(5-(1-ethyl-1H-pyrazol-4-yl)-4-(isopropylamino)pyridin-2-yl)-1H-pyrazolo[3,4-b]pyridine-5-carbonitrile]

The remaining lines, values behind:

Structure (SMILES) | pIC50
CC(C)Nc1cc(-n2ncc3cc(C#N)cnc32)ncc1-c1cn(-c2cccnc2)nn1 [Example 174, 1-(4-(isopropylamino)-5-(1-(pyridin-3-yl)-1H-1,2,3-triazol-4-yl)pyridin-2-yl)-1H-pyrazolo[3,4-b]pyridine-5-carbonitrile] | 7.77
COC(=O)c1ccccc1-n1cc(-c2cnc(-n3ncc4cc(C#N)cnc43)cc2NC(C)C)nn1 [Example 175, methyl 2-(4-(6-(5-cyano-1H-pyrazolo[3,4-b]pyridin-1-yl)-4-(isopropylamino)pyridin-3-yl)-1H-1,2,3-triazol-1-yl)benzoate] | 7.46
CC(C)Nc1cc(-n2ncc3cc(C#N)cnc32)ncc1-c1cn([C@H]2CCN(C(=O)c3cccnc3)C[C@H]2O)nn1 [Example 184, 1-(5-(1-((3R,4S)-3-hydroxy-1-nicotinoylpiperidin-4-yl)-1H-1,2,3-triazol-4-yl)-4-(isopropylamino)pyridin-2-yl)-1H-pyrazolo[3,4-b]pyridine-5-carbonitrile] | 7.70
CC(C)Nc1cc(-n2ncc3cc(C(N)=O)cnc32)ncc1-c1cn([C@@H]2CCNC[C@@H]2O)nn1 [Example 187, 1-(5-(1-((3S,4R)-3-hydroxypiperidin-4-yl)-1H-1,2,3-triazol-4-yl)-4-(isopropylamino)pyridin-2-yl)-1H-pyrazolo[3,4-b]pyridine-5-carboxamide] | 6.52
CCOC(=O)N1CC[C@@H](n2cc(-c3cnc(-n4ncc5cc(C#N)cnc54)cc3NC(C)C)nn2)[C@@H](O)C1 [Example 189, (3S,4R)-ethyl 4-(4-(6-(5-cyano-1H-pyrazolo[3,4-b]pyridin-1-yl)-4-(isopropylamino)pyridin-3-yl)-1H-1,2,3-triazol-1-yl)-3-hydroxypiperidine-1-carboxylate] | 7.57
CC(C)Nc1cc(-n2ncc3cc(C#N)cnc32)ncc1-c1cn(CC(=O)N2CCN(S(C)(=O)=O)CC2)nn1 [Example 193, 1-(4-(isopropylamino)-5-(1-(2-(4-(methylsulfonyl)piperazin-1-yl)-2-oxoethyl)-1H-1,2,3-triazol-4-yl)pyridin-2-yl)-1H-pyrazolo[3,4-b]pyridine-5-carbonitrile] | 8.40
CC(C)CCn1cc(-c2cnc(-n3ncc4cc(Cl)cnc43)cc2NC(C)C)nn1 [Example 217, 2-(5-chloro-1H-pyrazolo [3,4-b]pyridin-1-yl)-5-(1-isopentyl-1H-1,2,3-triazol-4-yl)-N-isopropylpyridin-4-amine] | 8.22
CC(C)Nc1cc(-n2ncc3cc(C#N)cnc32)ncc1-c1cn(C[C@H](C)O)cn1 [Example 222, (S)-1-(5-(1-(2-hydroxypropyl)-1H-imidazol-4-yl)-4-(isopropylamino)pyridin-2-yl)-1H-pyrazolo[3,4-b]pyridine-5-carbonitrile] | 7.20
CC(=O)N1CC(n2cnc(-c3cnc(-n4ncc5cc(C#N)cnc54)cc3NC(C)C)c2)C1 [Example 223, 1-(5-(1-(1-acetylazetidin-3-yl)-1H-imidazol-4-yl)-4-(isopropylamino)pyridin-2-yl)-1H-pyrazolo[3,4-b]pyridine-5-carbonitrile] | 7.66
CC(C)Nc1cc(-n2ncc3cc(C#N)cnc32)ncc1-c1cn(-c2cccnc2)cn1 [Example 224, 1-(4-(isopropylamino)-5-(1-(pyridin-3-yl)-1H-imidazol-4-yl)pyridin-2-yl)-1H-pyrazolo[3,4-b]pyridine-5-carbonitrile] | 7.06
CCn1cnc(-c2cnc(-n3ncc4cc(C#N)cnc43)cc2NC(C)C)c1 [Example 227, 1-(5-(1-ethyl-1H-imidazol-4-yl)-4-(isopropylamino)pyridin-2-yl)-1H-pyrazolo[3,4-b]pyridine-5-carbonitrile] | 7.54
CC(C)Nc1cc(-n2ncc3cc(C#N)cnc32)ncc1-c1cn(C[C@H](C)CO)cn1 [Example 228, (S)-1-(5-(1-(3-hydroxy-2-methylpropyl)-1H-imidazol-4-yl)-4-(isopropylamino)pyridin-2-yl)-1H-pyrazolo[3,4-b]pyridine-5-carbonitrile] | 7.72
CC(C)Nc1cc(-n2ncc3cc(C#N)cnc32)ncc1-c1cn(Cc2ccccc2)cn1 [Example 230, 1-(5-(1-benzyl-1H-imidazol-4-yl)-4-(isopropylamino)pyridin-2-yl)-1H-pyrazolo[3,4-b]pyridine-5-carbonitrile] | 7.57
CC(C)Nc1cc(-n2ncc3cc(C#N)cnc32)ncc1-c1cn(CC(=O)N2CCOCC2)cn1 [Example 231, 1-(4-(isopropylamino)-5-(1-(2-morpholino-2-oxoethyl)-1H-imidazol-4-yl)pyridin-2-yl)-1H-pyrazolo[3,4-b]pyridine-5-carbonitrile] | 7.68
CC(C)Nc1cc(-n2ncc3cc(C#N)cnc32)ncc1-c1cn(Cc2cccnc2)cn1 [Example 235, 1-(4-(isopropylamino)-5-(1-(pyridin-3-ylmethyl)-1H-imidazol-4-yl)pyridin-2-yl)-1H-pyrazolo[3,4-b]pyridine-5-carbonitrile] | 7.52
CC(C)Nc1cc(-n2ncc3cc(C#N)cnc32)ncc1-c1cn(CC(N)=O)cn1 [Example 237, 2-(4-(6-(5-cyano-1H-pyrazolo[3,4-b]pyridin-1-yl)-4-(isopropylamino)pyridin-3-yl)-1H-imidazol-1-yl) acetamide] | 7.43
CNC(=O)Cn1cnc(-c2cnc(-n3ncc4cc(C#N)cnc43)cc2NC(C)C)c1 [Example 238, 2-(4-(6-(5-cyano-1H-pyrazolo[3,4-b]pyridin-1-yl)-4-(isopropylamino)pyridin-3-yl)-1H-imidazol-1-yl)-N-methylacetamide] | 7.44
CC(C)Nc1cc(-n2ncc3cc(C#N)cnc32)ncc1-c1cn(Cc2ccccn2)cn1 [Example 239, 1-(4-(isopropylamino)-5-(1-(pyridin-2-ylmethyl)-1H-imidazol-4-yl)pyridin-2-yl)-1H-pyrazolo[3,4-b]pyridine-5-carbonitrile] | 7.47
CC(C)Nc1cc(-n2ncc3cc(C#N)cnc32)ncc1-c1cn(CCCc2ccccc2)cn1 [Example 241, 1-(4-(isopropylamino)-5-(1-(3-phenylpropyl)-1H-imidazol-4-yl)pyridin-2-yl)-1H-pyrazolo [3,4-b]pyridine-5-carbonitrile] | 7.46
CC(C)Nc1cc(-n2ncc3cc(C#N)cnc32)ncc1-n1cc(CCO)cn1 [Example 242, 1-(5-(4-(2-hydroxyethyl)-1H-pyrazol-1-yl)-4-(isopropylamino)pyridin-2-yl)-1H-pyrazolo[3,4-b]pyridine-5-carbonitrile] | 7.33
CC(C)Nc1cc(-n2ncc3cc(C#N)cnc32)ncc1-n1cc(Cc2ccccc2)cn1 [Example 243, 1-(5-(4-benzyl-1H-pyrazol-1-yl)-4-(isopropylamino)pyridin-2-yl)-1H-pyrazolo[3,4-b]pyridine-5-carbonitrile] | 7.21

From US10294229B2, “Heteroaryl substituted aminopyridine compounds” (BRISTOL-MYERS SQUIBB COMPANY, priority 2015, dated 2019)
